Measured values from patent publication US20160067211A1, “PHARMACEUTICAL COMPOSITION” (Eberhard Karls Universitaet Tuebingen Medizinische Fakultaet, priority 2013, published 2016).

How the values were obtained:
[1] = test system: cleaved caspase-3 in SK-MEL-28 melanoma cells; experiment: Western blot for cleaved caspase-3; assay type: cell-based, human; conditions: SK-MEL-28, 100 μM
Description: Western blot analysis of SK-MEL-28 melanoma cells treated with 100 μM of 6-PN, 8-PN, SAHA or TSA. EtOH and DMSO were applied as controls.
The following antibodies were used: Anti-Vinculin and Anti-Actin (1:5000, Sigma-Aldrich), Anti-Acetyl-Histon H3 (1:5000, Millipore, Billerica, USA), Anti-Caspase-3 (1:1000), Anti-AKT, Anti-pAKT, Anti-ERK, Anti-pERK, […], Anti-p70S6 Kinase, and Anti-pS6 protein (1:1000), all from Cell Signaling, Frankfurt, Germany), Anti-LC3 (1:5000, Sigma-Aldrich).
To further analyze the type of cell death induced by 6-PN and 8-PN, western blot analyses of SK-MEL-28 melanoma cells were performed 1, 2, 4, 12 and 24 hours after the treatment with 100 μM 6-PN and 8-PN. […] Upon PN treatment an inconsistent expression of oncogenic AKT and phospho-AKT (pAKT) was detected. […] Thus, there was an obvious discrepancy between the expression of pAKT and pS6P. Therefore it was first also looked for the expression of P70S6 kinase and its phosphorylated form. […] Therefore it was next asked whether the S6P could be phosphorylated by a different mechanism. In this respect, activated ERK can phosphorylate the p90 ribosomal S6 kinase (pP90). pP90 also phosphorylates the S6P (in addition to the P70S6 kinase). Since the pP70S6 kinase was absent in the used cells (SK-MEL-28 and BLM), it was hypothesized that the phosphorylation of the S6P was conducted via the pERK/pP90 pathway, independent from the P70S6 signalling. This hypothesis was supported by the parallel down-regulation of the bands for pP90 (Thr359/Ser363) and pS6P 12 hours after the treatment with 6-PN, and the reappearance of both bands after 24 hours (FIG. 8). […] The western blot experiments were repeated with BLM cells under the same treatment conditions and yielded similar results (not shown).

MRP1 = MRP1 (Homo sapiens, UniProt P33527); conditions: cited from earlier work
MRP1, sequence (P33527 whole entry): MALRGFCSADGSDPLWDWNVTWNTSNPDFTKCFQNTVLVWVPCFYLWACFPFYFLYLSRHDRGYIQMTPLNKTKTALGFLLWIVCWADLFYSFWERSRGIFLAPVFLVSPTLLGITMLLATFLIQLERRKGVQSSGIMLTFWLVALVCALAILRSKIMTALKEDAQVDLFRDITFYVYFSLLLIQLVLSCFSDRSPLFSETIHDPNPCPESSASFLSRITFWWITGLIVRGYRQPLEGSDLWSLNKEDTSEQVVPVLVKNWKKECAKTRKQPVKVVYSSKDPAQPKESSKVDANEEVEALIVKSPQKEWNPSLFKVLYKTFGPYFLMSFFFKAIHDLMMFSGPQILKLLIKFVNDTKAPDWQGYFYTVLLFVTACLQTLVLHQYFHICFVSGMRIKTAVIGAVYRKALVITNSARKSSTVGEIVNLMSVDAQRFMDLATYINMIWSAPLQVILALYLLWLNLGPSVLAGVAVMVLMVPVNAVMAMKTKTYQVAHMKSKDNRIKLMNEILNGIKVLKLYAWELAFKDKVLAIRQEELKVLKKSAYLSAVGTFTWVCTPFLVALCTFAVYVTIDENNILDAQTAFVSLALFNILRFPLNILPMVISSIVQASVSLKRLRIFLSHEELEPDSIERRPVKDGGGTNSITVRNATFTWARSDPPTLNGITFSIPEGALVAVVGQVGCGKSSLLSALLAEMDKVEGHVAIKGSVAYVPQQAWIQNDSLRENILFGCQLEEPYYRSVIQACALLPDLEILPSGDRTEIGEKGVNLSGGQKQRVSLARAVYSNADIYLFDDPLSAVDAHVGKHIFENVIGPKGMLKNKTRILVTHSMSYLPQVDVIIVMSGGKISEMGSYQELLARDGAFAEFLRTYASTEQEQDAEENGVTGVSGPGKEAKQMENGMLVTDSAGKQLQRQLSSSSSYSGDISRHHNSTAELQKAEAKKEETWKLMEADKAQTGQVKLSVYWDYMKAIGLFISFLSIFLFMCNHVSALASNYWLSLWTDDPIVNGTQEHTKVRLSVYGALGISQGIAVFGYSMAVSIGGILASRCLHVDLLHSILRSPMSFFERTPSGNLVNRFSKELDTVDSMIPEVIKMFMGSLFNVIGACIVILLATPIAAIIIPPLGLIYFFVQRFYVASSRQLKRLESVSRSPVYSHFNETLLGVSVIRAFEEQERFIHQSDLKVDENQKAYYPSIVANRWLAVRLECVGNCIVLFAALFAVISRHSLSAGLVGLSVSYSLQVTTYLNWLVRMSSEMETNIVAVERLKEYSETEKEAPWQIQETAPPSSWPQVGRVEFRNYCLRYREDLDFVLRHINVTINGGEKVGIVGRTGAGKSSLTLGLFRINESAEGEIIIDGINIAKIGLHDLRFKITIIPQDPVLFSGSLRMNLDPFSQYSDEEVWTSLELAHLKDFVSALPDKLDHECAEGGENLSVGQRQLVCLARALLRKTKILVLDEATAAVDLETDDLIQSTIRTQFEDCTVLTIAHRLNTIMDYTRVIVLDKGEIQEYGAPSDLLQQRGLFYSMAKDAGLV

In the case of `CC(C)=CCc1c(O)cc(O)c2c1OC(c1ccc(O)cc1)CC2=O` (centres unmarked) [8-PN, 5,7-Dihydroxy-2-(4-hydroxy-phenyl)-8-(3-methyl-but-2-enyl)-chroman-4-one], the “band for cleaved caspase-3” value [1] is listed as “no additional band” and the “inhibition of MRP1” value (MRP1) is listed as “inhibition”.
